From US20160030628A1, “TREATMENT FOR BILE LEAKAGE” (3-D MATRIX, LTD, priority 2013, published 2016)

Experiments:
[1] = system: bile leakage from punctured gall bladder; assay: bile leakage occlusion in a porcine gall bladder needle puncture model; type: in vivo; conditions: 2.5% w/v RADA16
Description: (§1) The objective of this study was to evaluate a self-assembling peptide solution (RADA16 in the form of PuraMatrix™ peptide hydrogel by 3-D Matrix, LTD.) as a bile leakage occlusion material in a porcine model. A histopathology assessment was also performed.
On the day of testing, an animal was sedated and prepared for surgery. A bile leakage model was prepared by puncturing needle punctures, using a 20G injection needle in the gall bladder of the test subject, as shown in FIG. 1A.
Subsequent to applying the self-assembling peptide solution, a bile leakage occlusion was confirmed at 1 minute, 20 seconds, as shown in FIG. 1D.
It was determined that 0.5 mL of the peptide solution was used to achieve the bile leakage occlusion of the needle puncture in the gallbladder.

[2] = system: gallbladder bile leakage occlusion site; assay: histopathology assessment (H&E) of the bile leakage occlusion site; type: in vivo, porcine; conditions: gallbladder fixed in formalin after occlusion with 2.5% w/v RADA16
Description: as §1
After bile leakage occlusion was achieved, the gallbladder was fixed in formalin and the H&E-stained pathological specimen was made at the bile leakage occlusion site.

Arg-Ala-Asp-Ala-Arg-Ala-Asp-Ala-Arg-Ala-Asp-Ala-Arg-Ala-Asp-Ala (RADARADARADARADA) [RADA16, self-assembling peptide; 1 and 2.5 w/v percent aqueous solutions available as PuraMatrix peptide hydrogel by 3-D Matrix]
volume of peptide solution used to achieve the bile leakage occlusion of the needle puncture ([1]; 20G needle puncture in the gallbladder, porcine model): 0.5 mL
secondary bile leakage after excess hydrogel was irrigated from the site ([1]; checked at 3 minutes, porcine gall bladder puncture): absence of a secondary bile leakage was confirmed
histopathological finding at bile leakage occlusion site (H&E-stained specimen, FIG. 2) [2]: occluded the bile leakage site
